Measured values published in paper PMC6727465, “Discovery of 2-phenoxyacetamides as inhibitors of the Wnt-depalmitoleating enzyme NOTUM from an X-ray fragment screen” (MedChemComm, 2019).
Converted amounts (≈) assume the structure as drawn. Where two headings read alike, the source gives them in different places.

Legend:
[1] = Metabolic stability in mouse liver microsomes; format: in vitro ADME; settings: NADPH independent metabolism; for half-life: mouse
Source text: (§1) Selected compounds were screened for aqueous solubility, transit performance in MDCK-mdr1 cell
(§2) lines for permeability, and metabolic stability in human and mouse liver microsomes as a measure of
(§3) ADME studies reported in this work were independently performed by GVK Biosciences (Hyderabad,
(§4) India) and/or Cyprotex (Macclesfield, UK).
(§5) Cyptotex, UK. See: https://www.cyprotex.com/admepk
(§6) GVK Biosciences, India. See: https://www.gvkbio.com/discovery-services/biology-services/dmpk-
(§7) The MDCK-mdr1 cell line used in these experiments was supplied to GVK Biosciences from SOLVO

[2] = tested on: Wnt/β-catenin signaling pathway TCF/LEF reporter (luciferase) HEK293 cell line with exogenous Wnt3a and NOTUM; assay: cells; format: cell-based; settings: for EC50: Wnt3a 100 ng mL^–1, NOTUM 500 ng mL^–1, n = 4, read-out: TCF/LEF reporter EC50, activation of Wnt signaling via inhibition of NOTUM
[3] = MDCK-mdr1 cell permeability; format: in vitro ADME; settings: dog
Source text: as §1, §2, §3, §4, §5, §6, §7

MDCK-mdr1 cell line = assay: MDCK-mdr1 cell permeability; format: in vitro ADME; settings: MDCK-mdr1
Source text: as §1, §2, §3, §4, §5, §6, §7

[4] = Hydrolytic stability in buffer systems; format: physicochemical; settings: three buffer systems (pH 4, 7.4, 10), time points up to 18 h, UPLC-MS
[5] = Metabolic stability in human liver microsomes; format: in vitro ADME; settings: NADPH independent metabolism
Source text: as §1, §2, §3, §4, §5, §6, §7

[6] = Aqueous thermodynamic solubility; format: physicochemical; settings: aqueous medium (not further specified), thermodynamic from solid
Source text: as §1, §2, §3, §4, §5, §6, §7

Cc1ccccc1OCC(=O)Nc1cccnc1 [Compound 3, 2-(2-methylphenoxy)-N-(pyridine-3-yl)acetamide]
half-life ([1]; liver microsomes): 1.1 min

Cc1ccccc1OCC(=O)Nc1cnccn1 [Compound 22]
MLM (t1/2 min) [1]: Not detected ^a

Cc1ccccc1OCC(=O)Nc1ccc2nccnc2c1 [Compound 27]
Response in TCF/LEF reporter assay [2]: supramaximal response

Cc1ccccc1OCC(=O)Nc1ccc2cnn(C)c2c1 [Compound 34]
Papp A→B ([3]; MDCK-mdr1, AB): 5.1 ×10⁻⁶ cm/s
Papp B→A ([3]; MDCK-mdr1, BA): 6.6 ×10⁻⁶ cm/s
P-gp mediated efflux (MDCK-mdr1 cell line): no evidence of P-gp mediated efflux
Hydrolytic stability [4]: only parent was detected
half-life [5]: 11.6 min
solubility thermodynamic [6]: 2 µg/mL (≈ 6.77 µM)
MLM (t1/2 min) [1]: Not detected ^a

Cc1ccccc1OCC(=O)Nc1ccc2cn(C)nc2c1 [Compound 35]
Response in TCF/LEF reporter assay ([2]; dual activity: NOTUM inhibition and stabilizers of luciferase enzyme): supramaximal response

CCn1cc2ccc(NC(=O)COc3ccccc3C)cc2n1 [Compound 37]
EC50 ([2]; Homo sapiens, HEK293): 386 ± 199 nM

Cc1ccccc1OCC(=O)Nc1ccc2cn(C(C)C)nc2c1 [Compound 38]
EC50 ([2]; Homo sapiens, HEK293): ~934 nM
inhibition at 3 µM ([2]; Homo sapiens, HEK293, at 3 μM): 60%
half-life [5]: 5.1 min
half-life ([1]; liver microsomes): 5.7 min

Cc1ccccc1OCC(=O)Nc1ccc2nn[nH]c2c1 [Compound 39]
half-life ([1]; liver microsomes): 1.8 min

Cc1ccccc1OCC(=O)Nc1ccc2cnccc2c1 [Compound 45]
half-life [5]: 12.1 min
half-life ([1]; liver microsomes): 11 min

O=C(COc1ccccc1Cl)Nc1ccc2cnccc2c1 [Compound 50]
half-life ([1]; liver microsomes): 3.3 min

Cc1ccccc1N(C)CC(=O)Nc1ccc2cnn(C)c2c1 [Compound 53]
half-life ([1]; mouse liver microsomes): 5.2 min

Cc1ccccc1OCC(=O)N1CCc2ccccc2C1 [Compound 54]
MLM (t1/2 min) [1]: Not detected ^a
